Test results taken from patent US20160287609A1, “ROR GAMMA MODULATORS” (ETH ZÜRICH, priority 2013, published 2016).

Target: T1, RORγ (Homo sapiens, UniProt P51449)
T1 construct: the cells were transfected with an expression vector for full-length RORγ; expressed in transfected cells; host or cells: 3T3L1 (mouse pre-adipocyte) cells, pcDNA3 expression vector, CMV promoter
T1 sequence (P51449 1-518): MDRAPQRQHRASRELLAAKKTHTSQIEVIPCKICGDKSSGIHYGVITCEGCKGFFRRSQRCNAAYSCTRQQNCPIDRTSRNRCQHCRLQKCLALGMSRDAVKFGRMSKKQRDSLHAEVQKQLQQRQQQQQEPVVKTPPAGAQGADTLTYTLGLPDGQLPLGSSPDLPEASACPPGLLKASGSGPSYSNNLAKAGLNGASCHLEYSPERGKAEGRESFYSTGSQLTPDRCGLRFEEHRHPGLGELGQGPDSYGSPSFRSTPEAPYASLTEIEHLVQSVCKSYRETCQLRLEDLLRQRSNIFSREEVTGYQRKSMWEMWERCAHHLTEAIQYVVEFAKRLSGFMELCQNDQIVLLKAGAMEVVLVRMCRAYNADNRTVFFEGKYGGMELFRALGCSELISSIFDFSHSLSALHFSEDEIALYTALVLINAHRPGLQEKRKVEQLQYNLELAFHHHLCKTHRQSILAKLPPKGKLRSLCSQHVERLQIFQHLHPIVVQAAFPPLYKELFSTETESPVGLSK
Assay: Luciferase transfection assay: repression of RORγ transcriptional activity (MMP3 promoter reporter, dual luciferase)
Type: cell-based
Details: 10 μM added to growth medium of transfected 3T3L1 cells; firefly/renilla luciferase ratio 48 h after transfection; average, n at least 6
Experimental: Adipocyte-like 3T3L1 cells grown to 60-70% confluence in 24 well dishes were used for the assay. The cells were transfected with the reporter gene (pMMP3-pGL3) or the respective empty pGL3 vector as control at a concentration of 0.1 μg/well. The pMMP3-pGL3 reporter expresses the luciferase gene under the control of the promoter of the RORγ target gene matrix metalloproteinase 3 (MMP3). In addition the cells were transfected with an expression vector for full-length RORγ or the respective empty pcDNA3 control vector at 0.1 ug/well. The pCMV-Renilla plasmid served as internal control to normalize for transfection efficacy at a concentration of 0.05 μg/well. All plasmids were transfected at the same time into the cell using the transfection reagent Fugene according to the manufacture's protocol (Promega). […] Firefly as well as renilla luciferase activity was measured 48 h after transfection using the Dual Luciferase Detection System (Promega) following the instructions provided by the manufacturer.
Compounds 13a, 13b and 14a were tested for their ability to inhibit gene transcription induced by the orphan nuclear receptor RORγ using a dual luciferase assay. […] This system allows to determine if a substance of interest is actively repressing the transcriptional activity of RORγ by using reduced luciferase activity as a read-out (FIG. 2).
For the actual experiment 60-70% confluent 3T3L1 pre-adipocytes were transfected with the MMP3 reporter, RORγ and the normalization vector expressing renilla luciferase. […] 48 h after introducing the plasmids, the cells were harvested, lysed and the activity of firefly as well as renilla luciferase measured in each well. The efficacy of a substance to repress RORγ activity was calculated from the ratio of firefly over renilla luciferase activity and normalization to the control wells and the DMSO treated wells. […]

In order of falling “transcriptional activity of RORγ, as % of the intensity measured in the presence of DMSO” value:
1. C[C@H](C[C@H](O)C(=O)O)C1C[C@H](O)[C@H]2C3C(CC[C@]12C)[C@@]1(C)CC[C@@H](O)C[C@H]1C[C@H]3O (stereo partly drawn) [Compound 13b, 3α,7α, 15α,(23S)-tetrahydroxy-5β-cholanoic acid]  57%
2. C[C@H](C[C@@H](O)C(=O)NCCS(=O)(=O)O)C1C[C@H](O)[C@H]2C3C(CC[C@]12C)[C@@]1(C)CC[C@@H](O)C[C@H]1C[C@H]3O (stereo in doubt) [Compound 14a, 3α,7β,15α,(23R)-tetrahydroxy-5β-24-oxocholanyl-amino ethansulfonic acid]  56%
3. C[C@H](C[C@@H](O)C(=O)O)C1C[C@H](O)[C@H]2C3C(CC[C@]12C)[C@@]1(C)CC[C@@H](O)C[C@H]1C[C@H]3O (stereo partly drawn) [Compound 13a, 3α,7α,15α,(23R)-tetrahydroxy-5β-cholanoic acid]  52%
